Data from patent US9637473B2, “Acrylamide derivatives as antimalarial agents” (priority 2013, dated 2017).
Counter-ions that a name gives are not always drawn.

Tested on: P. Falciparum NF54
Test: Plasmodium falciparum in vitro assay ([3H]-hypoxanthine incorporation)
Type: cell-based
Settings: Plasmodium falciparum, Erythrocyte, P. Falciparum NF54, erythrocytic stages in human red blood cells, 50% human serum
How it was run: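 This in vitro antimalarial assay used P. falciparum erythrocytic stages cultured in human erythrocytes and measured [3H]-hypoxanthine incorporation. Radioactivity on the dried filters, placed in plastic foil with 10 mL scintillation fluid, was counted in a Betaplate liquid scintillation counter. Sigmoidal inhibition curves built in Microsoft Excel gave the IC50.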

IC50 [nM]	SMILES
22	CC(C)N1CCC(N(Cc2cccc(Nc3ccncc3)n2)C(=O)/C=C/c2ccc(C(F)(F)F)cc2)CC1 [Example 132, (E)-N-(1-Isopropyl-piperidin-4-yl)-N-[6-(pyridin-4-ylamino)-pyridin-2-ylmethyl]-3-(4-trifluoromethyl-phenyl)-acrylamide formate]
39	Cc1cc(Nc2ccc(CN(C(=O)/C=C/c3ccc(C(F)(F)F)cc3)C3CCN(CC4CC4)CC3)cc2)ccn1 [Example 31, (E)-N-(1-Cyclopropylmethyl-piperidin-4-yl)-N-[4-(2-methyl-pyridin-4-ylamino)-benzyl]-3-(4-trifluoromethyl-phenyl)-acrylamide]
268	Cc1cc(Nc2ccc(CN(C(=O)/C=C/c3ccc(C(F)(F)F)cc3)C3CCN(Cc4cnc(C)nc4)CC3)cc2)ccn1 [Example 51, (E)-N-[4-(2-Methyl-pyridin-4-ylamino)-benzyl]-N-[1-(2-methyl-pyrimidin-5-ylmethyl)-piperidin-4-yl]-3-(4-trifluoromethyl-phenyl)-acrylamide]
20	CN1CCC(N2CCCCC(N(Cc3ccc(N(C)c4ccncc4)cc3)C(=O)/C=C/c3ccc(C(F)(F)F)cc3)C2)CC1 (racemic) [Example 70, (±)-(E)-N-(4-(methyl(pyridin-4-yl)amino)benzyl)-N-(1-(1-methylpiperidin-4-yl)azepan-3-yl)-3-(4-(trifluoromethyl)phenyl)acrylamide]
155	Cc1cc(Nc2ccc(CN(C(=O)/C=C/c3ccc(C(F)(F)F)cc3)C3CCN(CCC(F)(F)F)CC3)cc2)ccn1 [Example 39, (E)-N-[4-(2-Methyl-pyridin-4-ylamino)-benzyl]-3-(4-trifluoromethyl-phenyl)-N-[1-(3,3,3-trifluoro-propyl)-piperidin-4-yl]-acrylamide]
51	CN(c1ccncc1)c1ccc(CN(C(=O)/C=C/c2ccc(C(F)(F)F)cc2)C2CCN(Cc3cnn(-c4ccccc4)c3)CC2)cc1 [Example 18, (E)-N-[4-(Methyl-pyridin-4-yl-amino)-benzyl]-N-[1-(1-phenyl-1H-pyrazol-4-ylmethyl)-piperidin-4-yl]-3-(4-trifluoromethyl-phenyl)-acrylamide]
25	CN(c1ccncc1)c1ccc(CN(C(=O)/C=C/c2ccc(C(F)(F)F)cc2)[C@H]2CC[C@@H](N3CCCC3)CC2)cc1 [Example 192, (±)-cis-(E)-N-[4-(Methyl-pyridin-4-yl-amino)-benzyl]-N-(4-pyrrolidin-1-yl-cyclohexyl)-3-(4-trifluoromethyl-phenyl)-acrylamide]
63	CN(c1ccncc1)c1ccc(CN(C(=O)/C=C/c2ccc(C(F)(F)F)cc2)[C@H]2CC[C@H](N(C)C)CC2)cc1 [Example 190, (±)-trans-(E)-N-(4-Dimethylamino-cyclohexyl)-N-[4-(methyl-pyridin-4-yl-amino)-benzyl]-3-(4-trifluoromethyl-phenyl)-acrylamide]
34	CC(C)CCN1CCC(CN(Cc2ccc(N(C)c3ccncc3)cc2)C(=O)/C=C/c2ccc(C(F)(F)F)cc2)CC1 [Example 189, (E)-N-[1-(3-Methyl-butyl)-piperidin-4-ylmethyl]-N-[4-(methyl-pyridin-4-yl-amino)-benzyl]-3-(4-trifluoromethyl-phenyl)-acrylamide]
434	Cn1ccc(-c2ccc(CN(C(=O)/C=C/c3ccc(C(F)(F)F)cc3)C3CCN(C4CCCC4)CC3)cc2)n1 [Example 202, (E)-N-(1-Cyclopentyl-piperidin-4-yl)-N-[4-(1-methyl-1H-pyrazol-3-yl)-benzyl]-3-(4-trifluoromethyl-phenyl)-acrylamide]
58	CN(c1ccncc1)c1ccc(CN(C(=O)/C=C/c2ccc(C(F)(F)F)nc2)C2CCN(Cc3ccccc3)CC2)cc1 [Example 161, (E)-N-(1-Benzyl-piperidin-4-yl)-N-[4-(methyl-pyridin-4-yl-amino)-benzyl]-3-(6-trifluoromethyl-pyridin-3-yl)-acrylamide]
60	CN(c1ccncc1)c1ccc(CN(C(=O)/C=C/c2ccc(C(F)(F)F)cc2)C2CCN(C3CCCC3)CC2)cn1 [Example 104, (E)-N-(1-Cyclopentyl-piperidin-4-yl)-N-[6-(methyl-pyridin-4-yl-amino)-pyridin-3-ylmethyl]-3-(4-trifluoromethyl-phenyl)-acrylamide]
102	CC(C)Oc1ccc(/C=C/C(=O)N(Cc2ccc(N(C)c3ccncc3)cc2)C2CCN(Cc3ccccc3)CC2)cc1 [Example 143, (E)-N-(1-Benzyl-piperidin-4-yl)-3-(4-isopropoxy-phenyl)-N-[4-(methyl-pyridin-4-yl-amino)-benzyl]-acrylamide]
134	Cc1cc(Nc2ccc(CN(C(=O)/C=C/c3ccc(Cl)cc3)C3CCN(C4CCCC4)CC3)cn2)ccn1 [Example 169, (E)-3-(4-Chloro-phenyl)-N-(1-cyclopentyl-piperidin-4-yl)-N-[6-(2-methyl-pyridin-4-ylamino)-pyridin-3-ylmethyl]-acrylamide]
370	Cc1ccc(Nc2ccc(CN(C(=O)/C=C/c3ccc(C(F)(F)F)cc3)C3CCN(C4CCCC4)CC3)cc2)nc1 [Example 98, (E)-N-(1-Cyclopentyl-piperidin-4-yl)-N-[4-(5-methyl-pyridin-2-ylamino)-benzyl]-3-(4-trifluoromethyl-phenyl)-acrylamide]
343	Cc1cc(Nc2ccc(CN(C(=O)/C=C/c3ccc(C(F)(F)F)cc3)C3CCN(Cc4nc(C)cs4)CC3)cc2)ccn1 [Example 42, (E)-N-[4-(2-Methyl-pyridin-4-ylamino)-benzyl]-N-[1-(4-methyl-thiazol-2-ylmethyl)-piperidin-4-yl]-3-(4-trifluoromethyl-phenyl)-acrylamide]
286	COc1cc(Nc2ccc(CN(C(=O)/C=C/c3ccc(C(F)(F)F)cc3)C3CCN(C4CCCC4)CC3)cc2)ccn1 [Example 94, (E)-N-(1-Cyclopentyl-piperidin-4-yl)-N-[4-(2-methoxy-pyridin-4-ylamino)-benzyl]-3-(4-trifluoromethyl-phenyl)-acrylamide]
30	CC(C)CCN1CC2(CC(N(Cc3ccc(N(C)c4ccncc4)cc3)C(=O)/C=C/c3ccc(C(F)(F)F)cc3)C2)C1 [Example 75, (E)-N-(2-isopentyl-2-azaspiro[3.3]heptan-6-yl)-N-(4-(methyl(pyridin-4-yl)amino)benzyl)-3-(4-(trifluoromethyl)phenyl)acrylamide]
184	CC(C)N1CCC(N(Cc2cccc(N(C)c3ccncc3)n2)C(=O)/C=C/c2ccc(C(F)(F)F)cc2)CC1 [Example 127, (E)-N-(1-Isopropyl-piperidin-4-yl)-N-[6-(methyl-pyridin-4-yl-amino)-pyridin-2-ylmethyl]-3-(4-trifluoromethyl-phenyl)-acrylamide formate]
420	O=C(/C=C/c1ccc(C(F)(F)F)cc1)N(Cc1ccc(Nc2ccncn2)nc1)C1CCN(C2CCCC2)CC1 [Example 107, (E)-N-(1-Cyclopentyl-piperidin-4-yl)-N-[6-(pyrimidin-4-ylamino)-pyridin-3-ylmethyl]-3-(4-trifluoromethyl-phenyl)-acrylamide]
14	CN1CCC(N2CCC(N(Cc3ccc(N(C)c4ccncc4)cc3)C(=O)/C=C/c3ccc(C(F)(F)F)cc3)CC2)CC1 [Example 26, (E)-N-(1′-Methyl-[1,4′]bipiperidinyl-4-yl)-N-[4-(methyl-pyridin-4-yl-amino)-benzyl]-3-(4-trifluoromethyl-phenyl)-acrylamide]
54	CN1CCC(N2CCC(N(Cc3ccc(N(C)c4ccncc4)cc3)C(=O)/C=C/c3ccc(C#N)cc3)CC2)CC1 [Example 179, (E)-3-(4-Cyano-phenyl)-N-(1′-methyl-[1,4′]bipiperidinyl-4-yl)-N-[4-(methyl-pyridin-4-yl-amino)-benzyl]-acrylamide]
80	CN(c1ccncc1)c1ccc(CN(C(=O)/C=C/c2ccc(C(F)(F)F)cc2)[C@@H]2CCCN(C3CCCC3)C2)cc1 [Example 59, (R,E)-N-(1-cyclopentylpiperidin-3-yl)-N-(4-(methyl(pyridin-4-yl)amino)benzyl)-3-(4-(trifluoromethyl)phenyl)acrylamide]
18	CN1CCC(N2CCCC(N(Cc3ccc(N(C)c4ccncc4)cc3)C(=O)/C=C/c3ccc(C(F)(F)F)cc3)CC2)CC1 (racemic) [Example 57, (±)-(E)-N-(4-(methyl(pyridin-4-yl)amino)benzyl)-N-(1-(1-methylpiperidin-4-yl)azepan-4-yl)-3-(4-(trifluoromethyl)phenyl)acrylamide]
42	Cc1cc(Nc2ccc(CN(C(=O)/C=C/c3ccc(C(F)(F)F)cc3)C3CCN(C4CCCC4)CC3)cn2)ccn1 [Example 168, (E)-N-(1-Cyclopentyl-piperidin-4-yl)-N-[6-(2-methyl-pyridin-4-ylamino)-pyridin-3-ylmethyl]-3-(4-trifluoromethyl-phenyl)-acrylamide]
122	CC(C)CCN1CC[C@@H](N(Cc2ccc(N(C)c3ccncc3)cc2)C(=O)/C=C/c2ccc(C(F)(F)F)cc2)[C@H](F)C1 (racemic) [Example 81, (±)-(E)-N-(trans-3-fluoro-1-isopentylpiperidin-4-yl)-N-(4-(methyl(pyridin-4-yl)amino)benzyl)-3-(4-(trifluoromethyl)phenyl)acrylamide]
172	Cc1cc(Nc2ccc(CN(C(=O)/C=C/c3ccc(Cl)cc3)C(C)CN(C)C)cc2)ccn1 (centres unmarked) [Example 209, (E)-3-(4-Chloro-phenyl)-N-(2-dimethylamino-1-methyl-ethyl)-N-[4-(2-methyl-pyridin-4-ylamino)-benzyl]-acrylamide]

SMILES	IC50 [nM]
Cc1cccc(/C=C/C(=O)N(Cc2ccc(N(C)c3ccncc3)cc2)C2CCN(Cc3ccccc3)CC2)c1 [Example 159, (E)-N-(1-Benzyl-piperidin-4-yl)-N-[4-(methyl-pyridin-4-yl-amino)-benzyl]-3-m-tolyl-acrylamide]	195
Cc1ccccc1/C=C/C(=O)N(Cc1ccc(N(C)c2ccncc2)cc1)C1CCN(Cc2ccccc2)CC1 [Example 160, (E)-N-(1-Benzyl-piperidin-4-yl)-N-[4-(methyl-pyridin-4-yl-amino)-benzyl]-3-o-tolyl-acrylamide]	167
